Data reported in PubChem BioAssay AID652218 (The Scripps Research Institute Molecular Screening Center, 2013).
Activity calls are given as the source filed them.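 How the source made its calls: active means inhibition of the phosphatase PP1 of at least 70% at 50 µM; inactive means the rest.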

The compounds below were run against Serine/threonine-protein phosphatase PP1-alpha catalytic subunit (Homo sapiens) (UniProt P62136) (assay: single-dose PP1alpha phosphatase inhibition – biochemical, fluorescence, OMFP substrate, powder samples, set 2, confirmation (AID 652218)). Settings: purified PP1alpha, OMFP dephosphorylation fluorescence; at 50 µM; hits give high values.
Chain of Serine/threonine-protein phosphatase PP1-alpha catalytic subunit (Homo sapiens) (P62136 whole entry, looked up): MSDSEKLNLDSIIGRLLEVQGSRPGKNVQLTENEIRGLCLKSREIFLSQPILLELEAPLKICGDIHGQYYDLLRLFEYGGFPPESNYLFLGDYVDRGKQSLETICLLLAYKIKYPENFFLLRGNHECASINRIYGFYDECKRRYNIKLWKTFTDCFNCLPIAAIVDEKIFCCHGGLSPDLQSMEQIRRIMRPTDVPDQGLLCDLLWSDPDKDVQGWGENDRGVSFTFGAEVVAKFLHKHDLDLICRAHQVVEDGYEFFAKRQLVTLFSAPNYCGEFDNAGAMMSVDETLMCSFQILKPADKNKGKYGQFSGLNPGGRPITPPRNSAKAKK
CN1CCN(C(c2nccs2)c2cc(Cl)c3cccnc3c2O)CC1 (stereo unspecified) showed an inhibition of 103%. CN1CCN(C(c2ncccn2)c2ccc3cccnc3c2O)CC1 (stereo unspecified) showed an inhibition of 93.8%. With CN1CCN(C(c2cccnc2)c2cc(Cl)c3cccnc3c2O)CC1 (stereo unspecified) the inhibition was 40% (inactive). Compound CN1CCN(Cc2cc(Cl)c3cccnc3c2O)CC1 has an inhibition of 73.1%. Work on CC1CCN(C(c2ccccn2)c2cc(Cl)c3cccnc3c2O)CC1 (stereo unspecified) yielded an inhibition of 104%. COCOc1c(C(c2ccccn2)N2CCN(C)CC2)ccc2cccnc12 (stereo unspecified) was tested, and the inhibition was 66.1% (inactive). Oc1c(C(c2ccccn2)N2CCOCC2)cc(Cl)c2cccnc12 (stereo unspecified) gave an inhibition of 105%. Compound COc1ccc(C(c2ccc3cccnc3c2O)N2CCN(C)CC2)nc1 (stereo unspecified) has an inhibition of 97.9%. CN1CCC(NC(c2ccccn2)c2ccc3cccnc3c2O)CC1 (stereo unspecified) gave an inhibition of 97.3%. With Oc1c(CN2CCN(c3ccccc3)CC2)cc(Cl)c2cccnc12 the inhibition was 100%. COc1cccc(C(c2ccc3cccnc3c2O)N2CCN(C)CC2)n1 (stereo unspecified) showed an inhibition of 107%. With Cc1cccnc1C(c1ccc2cccnc2c1O)N1CCN(C)CC1 (stereo unspecified) the inhibition was 99.9%. With CCN1CCN(C(c2ccccn2)c2cc(Cl)c3cccnc3c2O)CC1 (stereo unspecified) the inhibition was 98.4%. Compound COc1ccnc(C(c2ccc3cccnc3c2O)N2CCN(C)CC2)c1 (stereo unspecified) has an inhibition of 104%. CN1CCN(C(c2ccccn2)c2ccc3cccnc3c2O)CC1 (stereo unspecified) gave an inhibition of 100%. Compound Cc1ccc(C(c2ccc3cccnc3c2O)N2CCN(C)CC2)nc1 (stereo unspecified) has an inhibition of 104%. Oc1c(C(NC2CCCCC2)c2ccccn2)ccc2cccnc12 (stereo unspecified) was tested, and the inhibition was 106%. With CN1CCN(C(c2ccccn2)c2cc(Cl)c3cccnc3c2O)CC1 (stereo unspecified) the inhibition was 98.4%. Cc1ccnc(C(c2ccc3cccnc3c2O)N2CCN(C)CC2)c1 (stereo unspecified) showed an inhibition of 104%. CC(C)(C)OC(=O)N1CCN(C(c2ccccn2)c2cc(Cl)c3cccnc3c2O)CC1 (stereo unspecified) was tested, and the inhibition was 90.5%. In the case of CN1CCN(C(c2ccccc2)c2cc(Cl)c3cccnc3c2O)CC1 (stereo unspecified), the inhibition is reported as 79.1%. CN1CCN(C(c2ccc3cccnc3c2O)c2ncccc2C(F)(F)F)CC1 (stereo unspecified) gave an inhibition of 102%. Work on CN1CCN(C(c2ccc(C(F)(F)F)cn2)c2ccc3cccnc3c2O)CC1 (stereo unspecified) yielded an inhibition of 99.8%. For CN1CCN(C(c2ccncc2)c2cc(Cl)c3cccnc3c2O)CC1 (stereo unspecified), the inhibition was 45% (inactive). Oc1c(C(c2ccccn2)N2CCNCC2)cc(Cl)c2cccnc12 (stereo unspecified) gave an inhibition of 83.5%. With Oc1c(C(c2ccccn2)N2CCCC2)ccc2cccnc12 (stereo unspecified) the inhibition was 107%. CN1CCN(C(c2cccs2)c2cc(Cl)c3cccnc3c2O)CC1 (stereo unspecified) was tested, and the inhibition was 88.6%. With CN1CCN(C(c2ccccn2)c2cc(Cl)ccc2O)CC1 (stereo unspecified) the inhibition was 6.19% (inactive). Work on Oc1c(C(c2ccccn2)N2CCC(Cc3ccccc3)CC2)cc(Cl)c2cccnc12 (stereo unspecified) yielded an inhibition of 89.3%. Compound Cc1cccc(C(c2ccc3cccnc3c2O)N2CCN(C)CC2)n1 (stereo unspecified) has an inhibition of 103%. Work on Oc1c(Cc2ccccn2)ccc2cccnc12 yielded an inhibition of 102%. CCOC(c1ccccn1)c1cc(Cl)c2cccnc2c1O (stereo unspecified) showed an inhibition of 99%. In the case of Oc1c(C(c2ccccn2)N2CCN(c3ccccc3F)CC2)cc(Cl)c2cccnc12 (stereo unspecified), the inhibition is reported as 101%. In the case of CN1CCN(C(c2ccccn2)c2cc(Cl)c3ccccc3c2O)CC1 (stereo unspecified), the inhibition is reported as 27.2% (inactive). Compound Oc1c(CN2CCN(c3ccccn3)CC2)cc(Cl)c2cccnc12 has an inhibition of 102%. With Cc1ccc2ccc(C(c3ccccn3)N3CCN(C)CC3)c(O)c2n1 (stereo unspecified) the inhibition was 101%.
